Laboratory results reported in US11957684B2, “Treatment of heavy menstrual bleeding associated with uterine fibroids” (Sumitomo Pharma Switzerland GmbH, priority 2016, dated 2024).
“And” between values parts separate entries of the source, which are not always exact repeats. Equal values may be shown once.

Test system: heavy menstrual bleeding associated with uterine fibroids
Assay: Example 5A 12-week placebo-controlled study in uterine fibroids: efficacy (PBAC, volumes, NRS, UFS-QOL, anemia parameters)
Type: in vivo, human
Experimental: Study participants were Japanese women with HMB (heavy menstrual bleeding) associated with UF (uterine fibroids).
Only the largest myomas among those measurable at Visit 1 were measured throughout the study.
During the period between Visit 2 and 3, in which subjects must have experienced at least 1 regular menstrual cycle, the baseline values concerning efficacy evaluation, including PBAC scores and pain symptoms, were collected. The baseline PBAC score is the total PBAC score for the entire menstrual cycle immediately before Visit 3.
Visit 3 was on Days 1 to 5 of the second menstrual cycle after Visit 1. From Visits 3 to 7, subjects tried to visit the clinics in a fasted state and before taking the study drug.
When a dose was missed before breakfast, subjects took the study drug 30 minutes before either dinner or lunch on the same day.
Pain symptoms, other clinical symptoms and QOL were measured as secondary endpoints. Pain symptoms were evaluated in the patient diary from Visit 1 to the day before Visit 7 using the NRS score. The UFS-QOL score was used to evaluate other clinical symptoms and the QOL of subjects. Subjects completed the UFS-QOL questionnaire at Visits 3, 5, 6 and 7.
In particular, FIGS. 50-52 tabulate hemoglobin concentrations; FIG. 53 tabulates hematocrit percentages; FIG. 54 tabulates serum iron concentrations; and FIG. 55 tabulates ferritin concentrations.
PBAC scores were used in Example 5A, and provide an estimate of menstrual blood loss volume. The PBAC score was evaluated by having subjects record details related to menstrual blood loss on a PBAC score sheet distributed by the sponsor during the treatment period. […] These items represent the level of stained sanitary materials over the course of a menstrual cycle, with a total score ranging from 0 (none) to infinity. Higher scores indicate heavier blood loss. The PBAC score sheet also allows subjects to indicate: whether they experienced bleeding between periods that required sanitary protection; whether they passed clots, and if so, approximate size of the clots; whether they experienced episodes of flooding; and whether they required double protection (used both a pad and tampon simultaneously). As used in the PBAC score sheet of Example 5A, flooding is defined as overflowing, or staining, of clothing or underwear due to menstrual bleeding.
The total PBAC score was derived by summing points for each of the above.
All myoma and uterine volumes referred to herein were evaluated using transvaginal ultrasound. Specifically, the myoma volumes were calculated using the following formula: D1×D2×D3×π/6, where D1 is the longest diameter of the myoma; D2 is the longest diameter of the myoma at an angle perpendicular to D1; and D3 is the diameter of the myoma crossing the intersection of D1 and D2 perpendicular to the D1/D2 plane.

[1] = 20 mg, Week 12, listed as Relugolix
[2] = 40 mg, Week 6-12, listed as Relugolix
[3] = 40 mg, Week 12, listed as Relugolix

## CONC(=O)Nc1ccc(-c2sc3c(c2CN(C)C)c(=O)n(-c2ccc(OC)nn2)c(=O)n3Cc2c(F)cccc2F)cc1 [Compound 1, N-(4-(1-(2,6-difluorobenzyl)-5-((dimethylamino)methyl)-3-(6-methoxy-3-pyridazinyl)-2,4-dioxo-1,2,3,4-tetrahydrothieno[2,3-d]pyrimidin-6-yl)phenyl)-N′-methoxyurea]
20 mg, Week 8
  UFS-QOL HRQL total score: 9.54±10.904
  UFS-QOL symptom severity score: 18.53±13.304
  ferritin value: 16.34 ± 15.659 ng/mL
  myoma volume: 86.34±103.084 cm^3
  uterine volume: 290.93±413.549 cm^3
20 mg, Week 12
  Fe value (serum iron): 85.7 ± 44.40 µg/dL
  Ht value: 40.54±3.003%
  UFS-QOL HRQL total score: 9.63±12.735
  UFS-QOL HRQL total, change from baseline: −2.11±10.529
  UFS-QOL symptom severity score: 16.56±14.024
  UFS-QOL symptom severity, change from baseline: −8.97±15.530
  change of Fe value from baseline: 24.7 ± 53.53 µg/dL
  change of Hb from baseline: 0.83 ± 1.161 g/dL
  change of Ht value from baseline: 2.31±3.522%
  change of ferritin value from baseline: 3.50 ± 10.229 ng/mL
  ferritin value: 18.03 ± 14.427 ng/mL
  myoma volume: 75.09±89.699 cm^3
  percent change of myoma volume from baseline: −36.69±32.631%
  percent change of uterine volume from baseline: −27.70±28.787%
  uterine volume: 259.44±322.759 cm^3
[1]
  UFS-QOL HRQL total, change from baseline: −2
  UFS-QOL symptom severity, change from baseline: −9
  change of Hb from baseline: 0.8 g/dL
  percent change of myoma volume from baseline: −37%
  percent change of uterine volume from baseline: −28%
40 mg (n = 55)
  Amenorrhea (PBAC from Week 6 to 12 was 0), number of patients: 40 n
40 mg, Week 2
  myoma volume: 109.29±132.534 cm^3
  uterine volume: 293.51±288.596 cm^3
40 mg, Week 2-6
  NRS score: 0.29±0.564
  subjects who achieved amenorrhea (PBAC = 0): 54.5%
  subjects with total PBAC score <10: 65.5%
40 mg, Week 2-12
  NRS score: 0.27±0.535
  subjects with total PBAC score <10: 61.8%
40 mg, Week 4
  Fe value (serum iron): 77.6 ± 44.81 µg/dL
  Ht value: 39.44±4.012%
  UFS-QOL HRQL total score: 11.31±12.082
  UFS-QOL symptom severity score: 24.10±16.141
  ferritin value: 15.14 ± 15.133 ng/mL
  myoma volume: 100.04±139.060 cm^3
  uterine volume: 267.74±275.256 cm^3
40 mg, Week 6-12
  NRS score: 0.25±0.542
  change of total PBAC score from baseline: −238.7±203.34
  subjects who achieved amenorrhea (PBAC = 0): 72.7% and 73%
  subjects with total PBAC score <10: 83.6%
  total PBAC score (mean±SD): 21.3±56.11
[2]
  NRS score: 0.2
  subjects who achieved amenorrhea (PBAC = 0): (72.7) %
40 mg, Week 8
  Fe value (serum iron): 78.2 ± 41.91 µg/dL
  Ht value: 40.23±3.620%
  UFS-QOL HRQL total score: 11.20±12.279
  UFS-QOL symptom severity score: 18.08±15.187
  ferritin value: 18.10 ± 16.177 ng/mL
  myoma volume: 86.01±120.639 cm^3
  uterine volume: 224.91±227.442 cm^3
40 mg, Week 12
  Fe value (serum iron): 82.0 ± 36.93 µg/dL
  Ht value: 40.53±3.307%
  UFS-QOL HRQL total score: 9.52±10.885
  UFS-QOL HRQL total, change from baseline: −5.52±15.871
  UFS-QOL symptom severity score: 14.05±15.272
  UFS-QOL symptom severity, change from baseline: −11.25±17.274
  change of Fe value from baseline: 25.5 ± 44.43 µg/dL
  change of Hb from baseline: 0.92 ± 1.183 g/dL
  change of Ht value from baseline: 2.46±3.445%
  change of ferritin value from baseline: 8.91 ± 13.131 ng/mL
  ferritin value: 21.84 ± 21.509 ng/mL
  myoma volume: 77.88±110.873 cm^3
  percent change of myoma volume from baseline: −38.59±34.197%
  percent change of uterine volume from baseline: −40.90±37.233%
  uterine volume: 208.03±209.312 cm^3
[3]
  UFS-QOL HRQL total, change from baseline: −6
  UFS-QOL symptom severity, change from baseline: −11
  change of Hb from baseline: 0.9 g/dL
  percent change of myoma volume from baseline: −39%
  percent change of uterine volume from baseline: −41%
